Assay results: US20220162192A1 (ESCAPE Bio, Inc., priority 2019, published 2022)
Where two headings read alike, the source gives them in different places.

Tests used:
[1] = molecular target: T1, Recombinant wild type LRRK2 protein (Homo sapiens, UniProt Q5S007); test: LanthaScreen Kinase Activity Assay (TR-FRET), wild type LRRK2; format: biochemical; conditions: 25 μM ATP, 400 nM LRRKtide, 2.9 nM kinase, 60 min at room temperature, read-out: LRRK2 WT IC50
T1 construct: purchased Life Technologies PR8604B
T1 sequence (Q5S007 whole entry): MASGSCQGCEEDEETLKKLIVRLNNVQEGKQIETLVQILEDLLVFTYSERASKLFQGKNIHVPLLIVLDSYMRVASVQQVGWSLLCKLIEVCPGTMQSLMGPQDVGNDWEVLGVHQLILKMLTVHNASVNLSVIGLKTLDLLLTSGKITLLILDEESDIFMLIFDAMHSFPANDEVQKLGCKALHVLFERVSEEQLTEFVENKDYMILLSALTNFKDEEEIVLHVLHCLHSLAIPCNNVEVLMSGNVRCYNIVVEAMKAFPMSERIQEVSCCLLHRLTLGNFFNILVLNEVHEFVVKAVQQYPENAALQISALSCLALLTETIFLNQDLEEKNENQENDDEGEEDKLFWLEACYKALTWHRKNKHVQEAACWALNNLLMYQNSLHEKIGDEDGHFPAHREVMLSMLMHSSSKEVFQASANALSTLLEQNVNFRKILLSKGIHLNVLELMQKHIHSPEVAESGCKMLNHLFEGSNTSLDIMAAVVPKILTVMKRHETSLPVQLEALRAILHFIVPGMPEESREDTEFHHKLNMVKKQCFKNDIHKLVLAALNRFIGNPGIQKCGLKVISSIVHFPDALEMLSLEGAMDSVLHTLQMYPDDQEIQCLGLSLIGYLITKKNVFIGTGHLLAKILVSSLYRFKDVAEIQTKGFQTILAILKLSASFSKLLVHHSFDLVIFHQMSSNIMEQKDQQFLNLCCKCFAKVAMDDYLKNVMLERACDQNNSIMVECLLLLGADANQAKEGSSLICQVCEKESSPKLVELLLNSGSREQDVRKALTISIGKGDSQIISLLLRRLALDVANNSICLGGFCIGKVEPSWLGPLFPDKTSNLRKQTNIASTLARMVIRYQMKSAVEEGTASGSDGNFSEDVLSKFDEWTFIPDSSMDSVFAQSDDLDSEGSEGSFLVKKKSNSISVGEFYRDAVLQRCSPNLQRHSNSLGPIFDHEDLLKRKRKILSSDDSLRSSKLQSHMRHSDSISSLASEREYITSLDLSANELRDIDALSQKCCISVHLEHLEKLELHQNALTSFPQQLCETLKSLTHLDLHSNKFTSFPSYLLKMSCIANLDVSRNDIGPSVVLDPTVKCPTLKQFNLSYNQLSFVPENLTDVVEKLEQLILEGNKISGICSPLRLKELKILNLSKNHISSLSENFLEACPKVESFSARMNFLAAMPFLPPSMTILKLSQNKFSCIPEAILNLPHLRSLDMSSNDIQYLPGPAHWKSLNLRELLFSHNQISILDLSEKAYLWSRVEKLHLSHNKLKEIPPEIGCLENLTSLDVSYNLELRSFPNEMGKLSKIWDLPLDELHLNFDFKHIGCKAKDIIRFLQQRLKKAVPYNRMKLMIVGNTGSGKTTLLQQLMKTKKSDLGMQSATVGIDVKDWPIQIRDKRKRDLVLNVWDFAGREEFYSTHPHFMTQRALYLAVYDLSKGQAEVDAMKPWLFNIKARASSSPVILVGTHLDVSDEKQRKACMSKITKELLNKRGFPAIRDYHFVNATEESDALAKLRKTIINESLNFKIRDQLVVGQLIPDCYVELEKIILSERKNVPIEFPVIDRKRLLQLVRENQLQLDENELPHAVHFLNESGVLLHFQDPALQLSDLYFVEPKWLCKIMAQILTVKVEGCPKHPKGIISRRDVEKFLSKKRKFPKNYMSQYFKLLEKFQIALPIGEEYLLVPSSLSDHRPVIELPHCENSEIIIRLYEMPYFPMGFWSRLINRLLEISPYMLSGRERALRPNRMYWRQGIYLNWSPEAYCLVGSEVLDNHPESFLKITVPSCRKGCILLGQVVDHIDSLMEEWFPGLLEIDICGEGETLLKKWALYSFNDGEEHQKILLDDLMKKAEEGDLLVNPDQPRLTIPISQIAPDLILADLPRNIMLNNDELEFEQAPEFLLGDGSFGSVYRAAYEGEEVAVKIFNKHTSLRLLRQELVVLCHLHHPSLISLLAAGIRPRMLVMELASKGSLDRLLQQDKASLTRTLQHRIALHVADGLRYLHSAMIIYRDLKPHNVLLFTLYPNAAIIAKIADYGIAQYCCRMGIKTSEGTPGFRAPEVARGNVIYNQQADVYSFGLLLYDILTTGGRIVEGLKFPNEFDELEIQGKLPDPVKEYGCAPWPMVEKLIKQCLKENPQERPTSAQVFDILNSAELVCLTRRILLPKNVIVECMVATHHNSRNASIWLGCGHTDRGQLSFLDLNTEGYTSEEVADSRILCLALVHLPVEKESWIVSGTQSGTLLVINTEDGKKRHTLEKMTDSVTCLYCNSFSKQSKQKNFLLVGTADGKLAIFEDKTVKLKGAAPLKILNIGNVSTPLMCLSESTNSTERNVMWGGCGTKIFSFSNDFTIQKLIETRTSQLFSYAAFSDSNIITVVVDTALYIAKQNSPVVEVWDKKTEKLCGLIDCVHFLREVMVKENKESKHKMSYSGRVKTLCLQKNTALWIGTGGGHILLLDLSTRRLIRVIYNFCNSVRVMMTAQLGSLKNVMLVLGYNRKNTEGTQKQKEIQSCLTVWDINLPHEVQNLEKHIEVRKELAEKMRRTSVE
Experimental: (§1) LRRK2 kinase activity was measured using a LanthaScreen™ Kinase Activity Assay from ThermoFisher Scientific. Recombinant wild type or G2019S-LRRK2 protein (Life Technologies, PR8604B or PV4881, respectively), was incubated with a fluorescein-labeled peptide substrate called LRRKtide that is based upon ezrin/radixin/moesin (ERM) (Life Technologies, PV4901) in the presence of ATP and serially diluted compound. After an incubation period of 1 hr, the phosphotransferase activity was stopped and a terbium-labelled anti-pERM antibody (Life Technologies, PV4899) was added to detect the phosphorylation of LRRKtide by measuring the time resolved-Forster resonant energy transfer (TR-FRET) signal from the terbium label on the antibody to the fluorescein tag on LRRKtide, expressed as the 520 nm/495 nm emission ratio. Compound-dependent inhibition of the TR-FRET signal was used to generate a concentration-response curve for IC50 determination.
(§2) The assay was carried out under the following protocol conditions: 1 mM compound in DMSO was serially diluted 1:3, 11 points in DMSO with a Biomek FX and 0.1 μL of the diluted compound was subsequently stamped into the assay plate (384-well format Lumitrac 200, Greiner, 781075) with an Echo Labcyte such that the final compound concentration in the assay was 10 μM to […]. Subsequently, 5 μL of 2× kinase solution (2.9 nM final concentration) was added to the assay plate in assay buffer composed of 50 mM Tris pH 8.5 (Sigma, T6791), 5 mM MgCl2 (Fluka, 63020), 1 mM EGTA (Sigma, E3889), 0.01% BRIJ-35 (Sigma, P1254) and 2 mM DTT. The reaction was started by addition of 2×ATP/LRRKtide solution in assay buffer such that the final concentration was 400 nM LRRKtide and 25 μM ATP. After 60 min incubation at room temperature, the reaction was stopped by addition of […] containing a final concentration of 2 nM anti-pERM antibody and 10 mM EDTA. After a 30 min incubation at RT, the TR-FRET signal was measured on a Wallac 2104 EnVision® multilabel reader at an excitation wavelength of 340 nm and reading emission at 520 nm and 495 nm. The ratio of the 520 nm and 495 nm emission was used to analyze the data.

[2] = molecular target: T2, Recombinant G2019S-LRRK2 protein (Homo sapiens, UniProt Q5S007, G2019S); test: LanthaScreen Kinase Activity Assay (TR-FRET), G2019S-LRRK2; format: biochemical; conditions: class symbols; 25 μM ATP, 400 nM LRRKtide, 2.9 nM kinase, 60 min at room temperature
T2 construct: purchased Life Technologies PV4881
T2 sequence (Q5S007 whole entry G2019S): as the sequence (Q5S007 whole entry) above, with G2019S counted along it
Experimental: as §1, §2

| SMILES | IC50 ([1]; class symbols) | IC50 [2] | IC50 ([1]; numeric bound instead of class symbol) |
| --- | --- | --- | --- |
| O=C(Nc1ccc2[nH]nc(-c3ccoc3)c2c1)c1ccc2ncsc2c1 [Example 123, N-(3-(Furan-3-yl)-1H-indazol-5-yl)benzo[d]thiazole-6-carboxamide] | 0.1 to 1 µM | ≤ 0.1 µM |  |
| O=C(Nc1ccc2[nH]nc(-c3ccoc3)c2c1)C1CCc2nncn2C1 (single isomer, unassigned) [Example 162b] | 0.1 to 1 µM | ≤ 0.1 µM |  |
| Cc1cccc(-c2n[nH]c3ccc(NC(=O)c4c(F)cc5c(cnn5C)c4F)cc23)c1 [Example 76, 4,6-Difluoro-1-methyl-N-(3-(m-tolyl)-1H-indazol-5-yl)-1H-indazole-5-carboxamide] | ≤ 0.1 µM | ≤ 0.1 µM |  |
| Cn1ncc2c(F)c(C(=O)Nc3ccc4[nH]nc(-c5ccc(N6CCOCC6)cc5)c4c3)c(F)cc21 [Example 94, 4,6-Difluoro-1-methyl-N-(3-(4-morpholinophenyl)-1H-indazol-5-yl)-1H-indazole-5-carboxamide] | ≤ 0.1 µM | ≤ 0.1 µM |  |
| Cc1cc2cnnn2c(C)c1C(=O)Nc1ccc2[nH]nc(-c3ccccc3F)c2c1 [Example 44, N-(3-(2-Fluorophenyl)-1H-indazol-5-yl)-5,7-dimethyl-[1,2,3]triazolo[1,5-a]pyridine-6-carboxamide] | 0.1 to 1 µM | ≤ 0.1 µM |  |
| Cc1cn2cncc2cc1C(=O)Nc1ccc2[nH]nc(-c3ccccc3)c2c1 [Example 52, 6-Methyl-N-(3-phenyl-1H-indazol-5-yl)imidazo[1,5-a]pyridine-7-carboxamide] | ≤ 0.1 µM | ≤ 0.1 µM |  |
| Cc1nc2cncn2c(C)c1C(=O)Nc1ccc2[nH]nc(I)c2c1 [Example 111, N-(3-Iodo-1H-indazol-5-yl)-2,4-dimethylimidazo[1,5-a]pyrimidine-3-carboxamide] | ≤ 0.1 µM | ≤ 0.1 µM |  |
| Cc1cc2cnnn2c(C)c1C(=O)Nc1ccc2[nH]nc(-c3ccco3)c2c1 [Example 155, N-(3-(Furan-2-yl)-1H-indazol-5-yl)-5,7-dimethyl-[1,2,3]triazolo[1,5-a]pyridine-6-carboxamide] | ≤ 0.1 µM | ≤ 0.1 µM |  |
| Cc1cn2cnnc2c(C)c1C(=O)Nc1ccc2[nH]nc(-c3ccccc3)c2c1 [Example 57, 6,8-Dimethyl-N-(3-phenyl-1H-indazol-5-yl)-[1,2,4]triazolo[4,3-a]pyridine-7-carboxamide] | ≤ 0.1 µM | ≤ 0.1 µM |  |
| Cc1cc2c(C)ncn2c(C)c1C(=O)Nc1ccc2[nH]nc(-c3ccoc3)c2c1 [Example 147, N-(3-(Furan-3-yl)-1H-indazol-5-yl)-1,5,7-trimethylimidazo[1,5-a]pyridine-6-carboxamide] | ≤ 0.1 µM | ≤ 0.1 µM |  |
| Cc1nocc1-c1n[nH]c2ccc(NC(=O)c3c(F)cc4c(cnn4C)c3F)cc12 [Example 30, 4,6-Difluoro-1-methyl-N-(3-(3-methylisoxazol-4-yl)-1H-indazol-5-yl)-1H-indazole-5-carboxamide] | 0.1 to 1 µM | ≤ 0.1 µM |  |
| Cc1cc2nn[nH]c2cc1C(=O)Nc1ccc2[nH]nc(-c3ccncc3)c2c1 [Example 1] | 0.1 to 1 µM | ≤ 0.1 µM |  |
| Cn1ncc2c(F)c(C(=O)Nc3ccc4[nH]nc(-c5ccccc5)c4c3)c(F)cc21 [Example 50, 4,6-Difluoro-1-methyl-N-(3-phenyl-1H-indazol-5-yl)-1H-indazole-5-carboxamide] | 0.1 to 1 µM | ≤ 0.1 µM |  |
| Cc1cc2c(cnn2C)nc1C(=O)Nc1ccc2[nH]nc(-c3cnco3)c2c1 [Example 160, 1,6-Dimethyl-N-(3-(oxazol-5-yl)-1H-indazol-5-yl)-1H-pyrazolo[4,3-b]pyridine-5-carboxamide] | ≤ 0.1 µM | ≤ 0.1 µM |  |
| CN(C)c1ccc(-c2n[nH]c3ccc(NC(=O)c4c(F)cc5c(cnn5C)c4F)cc23)cc1 [Example 87, N-(3-(4-(Dimethylamino)phenyl)-1H-indazol-5-yl)-4,6-difluoro-1-methyl-1H-indazole-5-carboxamide] | ≤ 0.1 µM | ≤ 0.1 µM |  |
| Cn1ncc2c(F)c(C(=O)Nc3ccc4[nH]nc(-c5cnccc5C(F)(F)F)c4c3)c(F)cc21 [Example 91, 4,6-Difluoro-1-methyl-N-(3-(4-(trifluoromethyl)pyridin-3-yl)-1H-indazol-5-yl)-1H-indazole-5-carboxamide] | 1 to 10 µM | 0.1 to 1 µM |  |
| Cc1cc2[nH]cnc2cc1C(=O)Nc1ccc2[nH]nc(Br)c2c1 [Example 18, N-(3-Bromo-1H-indazol-5-yl)-6-methyl-1H-benzo[d]imidazole-5-carboxamide] | 0.1 to 1 µM | 0.1 to 1 µM |  |
| Cc1cc2c(C)nnn2c(C)c1C(=O)Nc1ccc2[nH]nc(-c3ccccc3)c2c1 [Example 64, 3,5,7-Trimethyl-N-(3-phenyl-1H-indazol-5-yl)-[1,2,3]triazolo[1,5-a]pyridine-6-carboxamide] | 0.1 to 1 µM | ≤ 0.1 µM |  |
| O=C(Nc1ccc2[nH]nc(-c3ccoc3)c2c1)c1ccc2nccn2c1 [Example 119, N-(3-(Furan-3-yl)-1H-indazol-5-yl)imidazo[1,2-a]pyridine-6-carboxamide] | 0.1 to 1 µM | ≤ 0.1 µM |  |
| Cn1cc2nc(C(=O)Nc3ccc4[nH]nc(-c5cnco5)c4c3)ccc2n1 [Example 166, 2-Methyl-N-(3-(oxazol-5-yl)-1H-indazol-5-yl)-2H-pyrazolo[4,3-b]pyridine-5-carboxamide] | 0.1 to 1 µM | ≤ 0.1 µM |  |
| Cn1ncc2c(F)c(C(=O)Nc3ccc4[nH]nc(-c5ccccc5OC(F)(F)F)c4c3)c(F)cc21 [Example 93, 4,6-Difluoro-1-methyl-N-(3-(2-(trifluoromethoxy)phenyl)-1H-indazol-5-yl)-1H-indazole-5-carboxamide] |  | 1 to 10 µM | > 10 µM |
| Cc1cc2cncn2cc1C(=O)Nc1ccc2[nH]nc(-c3ccoc3)c2c1 [Example 146, N-(3-(Furan-3-yl)-1H-indazol-5-yl)-7-methylimidazo[1,5-a]pyridine-6-carboxamide] | ≤ 0.1 µM | ≤ 0.1 µM |  |
| O=C(Nc1ccc2[nH]nc(-c3ccoc3)c2c1)c1ccc2cnsc2c1 [Example 156, N-(3-(Furan-3-yl)-1H-indazol-5-yl)benzo[d]isothiazole-6-carboxamide] | ≤ 0.1 µM | ≤ 0.1 µM |  |
| Cn1ncc2c(F)c(C(=O)Nc3ccc4[nH]nc(-c5cnn(C(F)F)c5)c4c3)c(F)cc21 [Example 86, N-(3-(1-(Difluoromethyl)-1H-pyrazol-4-yl)-1H-indazol-5-yl)-4,6-difluoro-1-methyl-1H-indazole-5-carboxamide] | ≤ 0.1 µM | ≤ 0.1 µM |  |
| Cn1ncc2c(F)c(C(=O)Nc3ccc4[nH]nc(Cc5ccccc5)c4c3)c(F)cc21 [Example 140, N-(3-Benzyl-1H-indazol-5-yl)-4,6-difluoro-1-methyl-1H-indazole-5-carboxamide] | 1 to 10 µM | 0.1 to 1 µM |  |
| Cn1ncc2c(F)c(C(=O)Nc3ccc4[nH]nc(-c5cccnc5)c4c3)c(F)cc21 [Example 32, 4,6-Difluoro-1-methyl-N-(3-(pyridin-3-yl)-1H-indazol-5-yl)-1H-indazole-5-carboxamide] | ≤ 0.1 µM | ≤ 0.1 µM |  |
| Cc1ccncc1-c1n[nH]c2ccc(NC(=O)c3c(F)cc4c(cnn4C)c3F)cc12 [Example 38, 4,6-Difluoro-1-methyl-N-(3-(4-methylpyridin-3-yl)-1H-indazol-5-yl)-1H-indazole-5-carboxamide] | 1 to 10 µM | 1 to 10 µM |  |
| Cn1ncc2c(F)c(C(=O)Nc3ccc4[nH]nc(-c5ccncn5)c4c3)c(F)cc21 [Example 73, 4,6-Difluoro-1-methyl-N-(3-(pyrimidin-4-yl)-1H-indazol-5-yl)-1H-indazole-5-carboxamide] | ≤ 0.1 µM | ≤ 0.1 µM |  |
| O=C(Nc1ccc2[nH]nc(-c3ccoc3)c2c1)c1cnc2ccnn2c1 [Example 130, N-(3-(Furan-3-yl)-1H-indazol-5-yl)pyrazolo[1,5-a]pyrimidine-6-carboxamide] | 0.1 to 1 µM | 0.1 to 1 µM |  |
| COc1ccccc1-c1n[nH]c2ccc(NC(=O)c3c(F)cc4c(cnn4C)c3F)cc12 [Example 85, 4,6-Difluoro-N-(3-(2-methoxyphenyl)-1H-indazol-5-yl)-1-methyl-1H-indazole-5-carboxamide] | 1 to 10 µM | ≤ 0.1 µM |  |
